Read-outs that look alike come from different tables or passages of the source.
How the values were obtained:
M1 muscarinic receptor = molecular target: T1, M1 muscarinic receptor (Homo sapiens, UniProt P11229); experiment: Functional mobilization of intracellular calcium (FLIPR) in M1-CHO cells; format: cell-based
T1 construct: expressed in transfected cells; host or cells: CHO (M1-CHO)
T1 sequence (P11229 1-460): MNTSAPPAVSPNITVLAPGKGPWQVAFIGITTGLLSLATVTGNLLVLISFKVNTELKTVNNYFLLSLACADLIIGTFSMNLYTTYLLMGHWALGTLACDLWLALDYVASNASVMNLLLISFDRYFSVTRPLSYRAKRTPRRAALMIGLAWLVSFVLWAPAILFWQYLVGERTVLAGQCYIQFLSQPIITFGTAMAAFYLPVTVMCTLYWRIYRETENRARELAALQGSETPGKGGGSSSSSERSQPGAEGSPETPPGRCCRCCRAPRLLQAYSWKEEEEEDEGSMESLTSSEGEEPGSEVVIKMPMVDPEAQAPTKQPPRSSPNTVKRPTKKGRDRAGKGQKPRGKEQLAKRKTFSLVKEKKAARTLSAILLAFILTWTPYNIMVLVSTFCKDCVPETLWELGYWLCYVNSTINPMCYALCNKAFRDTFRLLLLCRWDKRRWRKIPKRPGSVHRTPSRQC
In short: (§1)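 Measured via Fluo-3 fluorescence on a FLIPR, CHO cells with either muscarinic subtype received compound in 0.5% DMSO. Antagonism was assessed after 15 min pre-incubation followed by carbachol at each subtype's EC80; agonism from compound addition alone.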

M4 muscarinic receptor = molecular target: T2, M4 muscarinic receptor (Homo sapiens, UniProt P08173); experiment: Functional mobilization of intracellular calcium (FLIPR) in M4-CHO cells; format: cell-based
T2 construct: expressed in transfected cells; host or cells: CHO (M4-CHO)
T2 sequence (P08173 1-479): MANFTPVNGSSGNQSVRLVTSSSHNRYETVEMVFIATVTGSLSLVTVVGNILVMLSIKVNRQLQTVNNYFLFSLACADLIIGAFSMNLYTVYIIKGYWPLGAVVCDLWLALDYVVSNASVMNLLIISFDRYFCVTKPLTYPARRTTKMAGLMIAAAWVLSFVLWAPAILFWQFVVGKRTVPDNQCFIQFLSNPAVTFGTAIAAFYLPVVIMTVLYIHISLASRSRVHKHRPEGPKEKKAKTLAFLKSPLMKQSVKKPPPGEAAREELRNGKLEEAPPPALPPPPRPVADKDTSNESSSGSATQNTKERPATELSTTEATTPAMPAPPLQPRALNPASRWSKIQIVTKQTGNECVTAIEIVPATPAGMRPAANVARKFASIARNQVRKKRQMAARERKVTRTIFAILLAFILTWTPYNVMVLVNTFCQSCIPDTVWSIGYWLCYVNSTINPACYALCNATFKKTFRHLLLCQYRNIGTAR
In short: as §1

[1] = Table 4, 100% efficacy is the maximum response obtained with the Carbachol control
[2] = Table 4, M1 receptor, calcium mobilization (FLIPR)
[3] = Table 4, M4 receptor, calcium mobilization (FLIPR)
[4] = M1 receptor, calcium mobilization
[5] = M1 receptor, calcium mobilization, read-out: M1 Efficacy
[6] = M4 receptor, calcium mobilization
[7] = M4 receptor, calcium mobilization, read-out: M4 Efficacy
[8] = Table 4, modulating M1 receptor
[9] = Table 4, modulating M4 receptor

Row | SMILES | Emax (M1 muscarinic receptor; [1]) | Emax (M4 muscarinic receptor; [1]) | M1 Activity (M1 muscarinic receptor; [4]) | M4 Activity (M4 muscarinic receptor; [6]) | M1 Activity (M1 muscarinic receptor; [8]) | M4 Activity (M4 muscarinic receptor; [9]) | also measured
1 | CC(=O)NC1CCC2(CCN(CCC3CCN(C(=O)C(C)(C)C)CC3)CC2)c2ccccc21 (stereo not drawn) [compound 966] | 25 to 100% | < 25% |  |  |  |  | M1 Activity (M1 muscarinic receptor; [2]): xxx (activity was measured to be less than 2.0 μM); M4 Activity (M4 muscarinic receptor; [3]): x (activity was measured to be greater than 5.0 μM)
2 | CCOC(=O)N1CCC(N2CCC3(CC2)CN(C(C)=O)c2ccc(-c4cccc(F)c4)cc23)CC1 [compound 84] |  |  | xxx (activity was measured to be less than 0.1 μM) | xx (activity was measured to be between 0.1 μM and 1.0 μM) |  |  | Emax (M1 muscarinic receptor; [5]): 65 to 85%; Emax (M4 muscarinic receptor; [7]): 65 to 85%
3 | CC(=O)N1CC2(CCN(C3CC4CCC(C3)N4C(=O)O[C@@H]3CCOC3)CC2)c2ccccc21 (stereo partly drawn) [compound 970] | 25 to 100% | 25 to 100% |  |  |  |  | M1 Activity (M1 muscarinic receptor; [2]): xxx (activity was measured to be less than 2.0 μM); M4 Activity (M4 muscarinic receptor; [3]): xxx (activity was measured to be less than 2.0 μM)
4 | CCOC(=O)N1CCC(N2CCC3(CC2)CN(C2CCC4(CC2)OCCO4)c2ccccc23)CC1 [compound 513] | 25 to 100% | 25 to 100% |  |  | xxx (activity was measured to be less than 2.0 μM) | xxx (activity was measured to be less than 2.0 μM) | 
5 | CCOC(=O)N1CC[C@@H](CN2CCC3(CC2)CN(C(=O)N(C)C)c2ccc(F)cc23)C1 [compound 974] | 25 to 100% | 25 to 100% |  |  |  |  | M1 Activity (M1 muscarinic receptor; [2]): xxx (activity was measured to be less than 2.0 μM); M4 Activity (M4 muscarinic receptor; [3]): xxx (activity was measured to be less than 2.0 μM)
6 | Cc1ccc2c(c1)C(=O)CC21CCN(CC2C[C@H]3CC[C@H]2C3)CC1 (stereo partly drawn) [compound 470] | 25 to 100% | 25 to 100% |  |  | xx (activity was measured to be between 2.0 μM and 5.0 μM) | xx (activity was measured to be between 2.0 μM and 5.0 μM) | 
7 | O=C1CC2(CCN(C[C@H]3C[C@H]4C=C[C@H]3C4)CC2)c2ccccc21 [compound 104] |  |  | xxx (activity was measured to be less than 0.1 μM) | x (activity was measured to be greater than 1.0 μM) |  |  | Emax (M1 muscarinic receptor; [5]): 65 to 85%; Emax (M4 muscarinic receptor; [7]): < 65%
8 | CCC#CCOC(=O)N1CCC(N2CCC3(CC2)CN(C(=O)N(C)C)c2ccc(F)cc23)CC1 [compound 694] | 25 to 100% | 25 to 100% |  |  | xxx (activity was measured to be less than 2.0 μM) | xxx (activity was measured to be less than 2.0 μM) | 
9 | CCOC(=O)N1C2CCC1CC(N1CCC3(CCCc4ccccc43)CC1)C2 (stereo not drawn) [compound 484] | 25 to 100% | 25 to 100% |  |  | xxx (activity was measured to be less than 2.0 μM) | xxx (activity was measured to be less than 2.0 μM) | 
10 | CCOC(=O)N1C2CCC1CC(N1CCC3(CC1)CN(C(C)=O)c1c(C)cc(C)cc13)C2 (stereo not drawn) [compound 827] | 25 to 100% | 25 to 100% |  |  |  |  | M1 Activity (M1 muscarinic receptor; [2]): xxx (activity was measured to be less than 2.0 μM); M4 Activity (M4 muscarinic receptor; [3]): xxx (activity was measured to be less than 2.0 μM)
11 | CCCC(=O)N1CC2(CCN(C3CCN(C(=O)OCC)CC3)CC2)c2cc(F)ccc21 [compound 324] |  |  | xx (activity was measured to be between 0.1 μM and 1.0 μM) | x (activity was measured to be greater than 1.0 μM) |  |  | Emax (M1 muscarinic receptor; [5]): 65 to 85%; Emax (M4 muscarinic receptor; [7]): 65 to 85%
12 | CC(=O)N1CC2(CCN(C[C@H]3CCN(C(=O)OCC(F)F)C3)CC2)c2ccccc21 [compound 871] | 25 to 100% | 25 to 100% |  |  |  |  | M1 Activity (M1 muscarinic receptor; [2]): x (activity was measured to be greater than 5.0 μM); M4 Activity (M4 muscarinic receptor; [3]): xx (activity was measured to be between 2.0 μM and 5.0 μM)
13 | CC(C)OC(=O)N1C2CCC1CC(N1CCC3(CC1)CN(C(=O)C1CC1)c1ccc(F)cc13)C2 (stereo not drawn) [compound 345] |  |  | xxx (activity was measured to be less than 0.1 μM) | xx (activity was measured to be between 0.1 μM and 1.0 μM) |  |  | Emax (M1 muscarinic receptor; [5]): < 65%; Emax (M4 muscarinic receptor; [7]): < 65%
14 | CCOC(=O)N1C2CCC1CC(N1CCC3(CC1)CN(C(C)=O)c1ccc(C(F)(F)F)cc13)C2 (stereo not drawn) [compound 583] | 25 to 100% | 25 to 100% |  |  | xxx (activity was measured to be less than 2.0 μM) | xxx (activity was measured to be less than 2.0 μM) | 
15 | CC(=O)N[C@H]1CC2(CCN(CC3CC4CCC3C4)C2)c2ccc(F)cc21 (stereo partly drawn) [compound 640] | 25 to 100% | 25 to 100% |  |  | xxx (activity was measured to be less than 2.0 μM) | xxx (activity was measured to be less than 2.0 μM) | 
16 | CN(C)C(=O)N1CC2(CCN(C3CCN(c4ncccn4)CC3)CC2)c2cc(F)ccc21 [compound 790] | 25 to 100% | 25 to 100% |  |  | xx (activity was measured to be between 2.0 μM and 5.0 μM) | xxx (activity was measured to be less than 2.0 μM) | 
17 | CC(=O)N[C@H]1CCC2(CCN(CC3CCOC3)CC2)c2ccccc21 (stereo partly drawn) [compound 602] | 25 to 100% | 25 to 100% |  |  | xxx (activity was measured to be less than 2.0 μM) | xx (activity was measured to be between 2.0 μM and 5.0 μM) | 
18 | CCOC(=O)N1CCC(N2CCC3(CC2)CC(=O)c2cc(C)ccc23)CC1 [compound 783] | 25 to 100% | 25 to 100% |  |  | xxx (activity was measured to be less than 2.0 μM) | xx (activity was measured to be between 2.0 μM and 5.0 μM) | 
19 | Cc1ccc2c(c1)C1(CCN(CC3CC4CCC(C4)C3)CC1)CN2 (stereo not drawn) [compound 622] | < 25% | < 25% |  |  | x (activity was measured to be greater than 5.0 μM) | x (activity was measured to be greater than 5.0 μM) | 
20 | CCC(=O)CCN1CCC(N2CCC3(CC2)CN(C(C)=O)c2ccc(F)cc23)CC1 [compound 454] | < 25% | < 25% |  |  | x (activity was measured to be greater than 5.0 μM) | x (activity was measured to be greater than 5.0 μM) | 
21 | CCOC(=O)N1C2CCC1CC(N1CCC3(CC1)CN(C(C)=O)c1ccc(F)cc13)C2 (stereo not drawn) [compound 371] |  |  | xxx (activity was measured to be less than 0.1 μM) | x (activity was measured to be greater than 1.0 μM) |  |  | Emax (M1 muscarinic receptor; [5]): 65 to 85%; Emax (M4 muscarinic receptor; [7]): > 85%
22 | O=C(N[C@H]1CC2(CCN(CC3CCCCC3)CC2)c2ccccc21)c1ccoc1 [compound 639] | 25 to 100% | < 25% |  |  | x (activity was measured to be greater than 5.0 μM) | x (activity was measured to be greater than 5.0 μM) | 
23 | CC(=O)N(C)[C@@H]1CC2(CCN(C[C@H]3C[C@H]4CC[C@H]3C4)CC2)c2ccccc21 [compound 339] |  |  | x (activity was measured to be greater than 1.0 μM) | x (activity was measured to be greater than 1.0 μM) |  |  | Emax (M1 muscarinic receptor; [5]): < 65%; Emax (M4 muscarinic receptor; [7]): < 65%
24 | O=C(O[C@@H]1CCOC1)N1CC2(CCN(C3CC4CCC(C3)N4C(=O)O[C@H]3CCOC3)CC2)c2cc(F)ccc21 (stereo partly drawn) [compound 93] |  |  | xx (activity was measured to be between 0.1 μM and 1.0 μM) | xx (activity was measured to be between 0.1 μM and 1.0 μM) |  |  | M1 Efficacy (M1 muscarinic receptor; [4]): x (efficacy was calculated to be less than 65%); M4 Efficacy (M4 muscarinic receptor; [6]): x (efficacy was calculated to be less than 65%)
25 | CCOC(=O)N1CCC(N2CCC3(CC2)CN(C(=O)c2cccc(OC)c2)c2ccc(F)cc23)CC1 [compound 45] |  |  | xxx (activity was measured to be less than 0.1 μM) | xxx (activity was measured to be less than 0.1 μM) |  |  | Emax (M1 muscarinic receptor; [5]): > 85%; Emax (M4 muscarinic receptor; [7]): 65 to 85%
26 | C#CCOC(=O)N1CC[C@@H](CN2CCC3(CC2)CN(C(C)=O)c2ccccc23)C1 [compound 816] | > 100% | > 100% |  |  |  |  | M1 Activity (M1 muscarinic receptor; [2]): xxx (activity was measured to be less than 2.0 μM); M4 Activity (M4 muscarinic receptor; [3]): xxx (activity was measured to be less than 2.0 μM)
27 | COc1ccc(OC(=O)N2C3CCC2CC(N2CCC4(CC2)COc2ccc(F)cc24)C3)cc1 (stereo not drawn) [compound 100] |  |  | xxx (activity was measured to be less than 0.1 μM) | xx (activity was measured to be between 0.1 μM and 1.0 μM) |  |  | Emax (M1 muscarinic receptor; [5]): 65 to 85%; Emax (M4 muscarinic receptor; [7]): 65 to 85%
